Source: ChEMBL document CHEMBL1201862, “PubChem BioAssay data set” (2004)
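Cells were grown in 96-well plates and exposed to each compound for 48 hours at five concentrations; endpoints were interpolated linearly between bracketing concentrations, or set to the highest concentration if not reached. GI50: concentration for 50% inhibition of growth.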 Calls of active or inactive are those of the source. Cut-off read from the data, not from the text of the source: active = GI50 up to about 1.1 µM and inactive = higher.

What was measured:
Test in all cases: NCI-60 cell line screen, 48 h
Malme-3M = test system: Malme-3M
NCI-H23 = test system: NCI-H23
TK-10 = test system: TK-10
SK-MEL-5 = test system: SK-MEL-5
UACC-257 = test system: UACC-257
786-0 = test system: 786-0
EKVX = test system: EKVX
RXF 393 = test system: RXF 393
A549 = test system: A549
HOP-92 = test system: HOP-92
A498 = test system: A498
COLO 205 = test system: COLO 205
SK-MEL-2 = test system: SK-MEL-2
ACHN = test system: ACHN
NCI-H522 = test system: NCI-H522
RPMI-8226 = test system: RPMI-8226

Measured: GI50

O=C1/C(=C/c2ccccc2)CCCC/C1=C\c1ccccc1
inactive: Malme-3M 36.2 µM | NCI-H23 45.1 µM | TK-10 > 100 µM | SK-MEL-5 24.1 µM | UACC-257 41.2 µM | 786-0 65.8 µM | EKVX > 100 µM | RXF 393 27.2 µM | A549 41.7 µM | HOP-92 40.1 µM | A498 > 100 µM | COLO 205 39.2 µM | SK-MEL-2 47.9 µM | ACHN 78.7 µM

c1cc2c(cc1C1OCC3C(c4ccc5c(c4)OCO5)OCC13)OCO2 (stereo unspecified)
inactive: Malme-3M 61.9 µM | NCI-H522 65.8 µM | NCI-H23 38.5 µM | TK-10 78.9 µM | SK-MEL-5 28.4 µM | UACC-257 53.8 µM | 786-0 > 100 µM | EKVX 62.4 µM | RXF 393 57.9 µM | A549 54 µM | HOP-92 69.7 µM | A498 55.3 µM | COLO 205 67.8 µM | SK-MEL-2 98.2 µM | ACHN 80.7 µM

COC(=O)CC1NC(=O)[C@@H]1C(C)O (stereo partly specified)
inactive: Malme-3M > 100 µM | TK-10 > 100 µM | SK-MEL-5 > 100 µM | UACC-257 > 100 µM | 786-0 > 100 µM | EKVX > 100 µM | RXF 393 > 100 µM | RPMI-8226 > 100 µM | A549 > 100 µM | A498 > 100 µM | COLO 205 > 100 µM | SK-MEL-2 > 100 µM | ACHN > 100 µM

Cc1ccc(N(C(=O)CC(=O)NN)C(=O)c2ccccc2Cl)cc1
inactive: Malme-3M > 100 µM | NCI-H522 > 100 µM | NCI-H23 > 100 µM | UACC-257 > 100 µM | 786-0 > 100 µM | EKVX > 100 µM | RXF 393 > 100 µM | RPMI-8226 > 100 µM | A549 > 100 µM | HOP-92 > 100 µM | A498 > 100 µM | COLO 205 > 100 µM | ACHN > 100 µM

O=C1c2ccccc2C(=O)c2sc(Nc3ccc(Cl)cc3)nc21
inactive: Malme-3M 1.96 µM | NCI-H522 1.61 µM | NCI-H23 1.55 µM | TK-10 5.89 µM | SK-MEL-5 1.8 µM | UACC-257 1.75 µM | 786-0 1.6 µM | EKVX 5.77 µM | RXF 393 1.53 µM | RPMI-8226 1.38 µM | A549 8.63 µM | A498 16.1 µM | COLO 205 7.16 µM | SK-MEL-2 3.67 µM | ACHN 1.57 µM

Brc1c2nc3ccccc3nc2n2ccc3ccccc3c12
inactive: Malme-3M > 100 µM | NCI-H522 69.5 µM | NCI-H23 > 100 µM | TK-10 > 100 µM | SK-MEL-5 > 100 µM | UACC-257 > 100 µM | 786-0 > 100 µM | EKVX > 100 µM | RPMI-8226 > 100 µM | A549 > 100 µM | HOP-92 > 100 µM | COLO 205 > 100 µM | SK-MEL-2 > 100 µM | ACHN > 100 µM

COC1=C(OC)CCC(/C(C#N)=C/c2ccc(OC)c(OC)c2)=C1
inactive: NCI-H522 21.4 µM | NCI-H23 79.1 µM | TK-10 34.2 µM | SK-MEL-5 > 100 µM | UACC-257 > 100 µM | 786-0 67.5 µM | RXF 393 36.7 µM | RPMI-8226 > 100 µM | A549 > 100 µM | HOP-92 49.8 µM | A498 > 100 µM | COLO 205 95.3 µM | SK-MEL-2 85.9 µM | ACHN > 100 µM

COC(=O)CC(c1ccccc1)C1(c2ccccc2)SCCS1 (stereo unspecified)
inactive: Malme-3M > 290 µM | NCI-H522 106 µM | NCI-H23 130 µM | TK-10 > 290 µM | SK-MEL-5 189 µM | UACC-257 > 290 µM | 786-0 > 290 µM | EKVX > 290 µM | RXF 393 > 290 µM | RPMI-8226 21.2 µM | A549 272 µM | HOP-92 12.6 µM | COLO 205 > 290 µM | SK-MEL-2 261 µM | ACHN > 290 µM

COC(=O)CC(NC(=O)OCc1ccccc1)C(C(C)=O)C(=O)OCc1ccccc1 (stereo unspecified)
inactive: Malme-3M > 10 µM | NCI-H522 > 31.6 µM | NCI-H23 > 31.6 µM | TK-10 > 31.6 µM | SK-MEL-5 > 31.6 µM | UACC-257 > 31.6 µM | 786-0 > 31.6 µM | EKVX > 31.6 µM | RXF 393 > 10 µM | RPMI-8226 > 31.6 µM | A549 > 31.6 µM | HOP-92 > 31.6 µM | A498 > 31.6 µM | COLO 205 > 31.6 µM | SK-MEL-2 > 10 µM | ACHN > 31.6 µM

Cc1ccccc1NC(=O)C(=O)CC(=O)c1sc(-n2nc(-c3ccccc3)cc2-c2ccccc2)nc1C
inactive: Malme-3M > 100 µM | NCI-H522 > 100 µM | NCI-H23 > 100 µM | TK-10 > 100 µM | UACC-257 > 100 µM | 786-0 > 100 µM | EKVX > 100 µM | RXF 393 > 100 µM | RPMI-8226 > 100 µM | A549 > 100 µM | HOP-92 > 100 µM | A498 > 100 µM | COLO 205 > 100 µM | SK-MEL-2 > 100 µM | ACHN > 100 µM

CCCCN(CCCC)C(=O)/C(CC(=O)c1cccc2ccccc12)=N\NC(=O)c1cc2ccccc2cc1O
inactive: Malme-3M 16.9 µM | NCI-H23 19.9 µM | TK-10 40.1 µM | SK-MEL-5 13.5 µM | UACC-257 21.1 µM | 786-0 20.3 µM | EKVX 21.6 µM | RXF 393 24.8 µM | RPMI-8226 3.52 µM | A549 21.1 µM | HOP-92 19.2 µM | COLO 205 23 µM | SK-MEL-2 14.1 µM | ACHN 16.9 µM

O=C1CCCCCCCCCCC(=O)C2CCOCCOCCOCCC1Cc1cccc(n1)C2
inactive: Malme-3M > 100 µM | NCI-H522 43.9 µM | NCI-H23 > 100 µM | TK-10 > 100 µM | SK-MEL-5 42.4 µM | UACC-257 > 100 µM | 786-0 > 100 µM | EKVX > 100 µM | RXF 393 32 µM | RPMI-8226 39.1 µM | A549 > 100 µM | A498 82.8 µM | COLO 205 93.3 µM | SK-MEL-2 > 100 µM | ACHN 69.8 µM

CN(C)C(=S)/N=c1\ss/c(=N\C(=S)N(C)C)n1-c1ccc2c(c1)OCO2
inactive: Malme-3M > 100 µM | NCI-H522 15.6 µM | NCI-H23 > 100 µM | TK-10 > 100 µM | SK-MEL-5 > 100 µM | UACC-257 > 100 µM | 786-0 > 100 µM | EKVX > 100 µM | RXF 393 > 100 µM | A549 > 100 µM | A498 > 100 µM | SK-MEL-2 > 100 µM | ACHN > 100 µM

COc1cc2c[n+](C)c3c4cc(OC)c(OC(C)C)cc4ccc3c2cc1OC
inactive: Malme-3M 29.4 µM | NCI-H522 16.9 µM | NCI-H23 48.6 µM | TK-10 > 100 µM | SK-MEL-5 23.4 µM | UACC-257 29.4 µM | 786-0 > 100 µM | EKVX > 100 µM | RXF 393 > 100 µM | RPMI-8226 36.2 µM | A549 77.6 µM | HOP-92 73.6 µM | COLO 205 10.5 µM | SK-MEL-2 20.1 µM | ACHN > 100 µM

CC1(C)COC(c2ccc(C(F)(F)F)cc2C(O)c2ccc3ccccc3c2)=N1 (stereo unspecified)
inactive: Malme-3M > 10 µM | NCI-H522 > 10 µM | NCI-H23 28.9 µM | TK-10 > 10 µM | SK-MEL-5 > 10 µM | UACC-257 > 10 µM | 786-0 > 10 µM | EKVX > 10 µM | RXF 393 16 µM | RPMI-8226 > 100 µM | A549 99.5 µM | HOP-92 41.4 µM | A498 > 10 µM | COLO 205 > 10 µM | SK-MEL-2 > 10 µM | ACHN > 10 µM

CC1(C)OC(=O)C(c2cccs2)C(=O)O1
inactive: Malme-3M > 100 µM | NCI-H522 > 100 µM | NCI-H23 > 100 µM | TK-10 > 100 µM | SK-MEL-5 > 100 µM | UACC-257 > 100 µM | 786-0 > 100 µM | EKVX > 100 µM | RXF 393 > 100 µM | RPMI-8226 > 100 µM | A549 > 100 µM | HOP-92 > 100 µM | COLO 205 > 100 µM | SK-MEL-2 > 100 µM | ACHN > 100 µM

COC1[C@@H](OC(C)=O)[C@@H](NC(=O)C(Cl)(Cl)Cl)C(I)[C@@H](N2C(=O)c3ccccc3C2=O)[C@H]1OC (stereo partly specified)
inactive: NCI-H522 > 100 µM | NCI-H23 > 100 µM | SK-MEL-5 > 100 µM | UACC-257 > 100 µM | 786-0 > 100 µM | EKVX > 100 µM | RXF 393 > 100 µM | RPMI-8226 > 100 µM | A549 > 100 µM | HOP-92 47.5 µM | A498 48.6 µM | COLO 205 > 100 µM | ACHN > 100 µM

COc1ccc(/C=C2\CCC(CCN(C)C)(C3=CCCC3)C2=O)cc1 (stereo unspecified)
inactive: Malme-3M 16 µM | NCI-H522 16.1 µM | NCI-H23 29 µM | TK-10 16.7 µM | SK-MEL-5 16.5 µM | UACC-257 16.9 µM | 786-0 15.3 µM | EKVX 14 µM | RXF 393 7.6 µM | RPMI-8226 20.8 µM | A549 19.2 µM | HOP-92 20.7 µM | A498 17.7 µM | COLO 205 12.8 µM | SK-MEL-2 17.6 µM | ACHN 16.9 µM
